Paper PMC6365106 (Clinical pharmacology and therapeutics, 2016)

Legend:
[1] = target: T1, OATP1B1 (Homo sapiens, UniProt Q9Y6L6); assay: in vitro; assay type: cell-based; conditions: oatp1b1-transfected cells
T1 sequence (Q9Y6L6 1-691): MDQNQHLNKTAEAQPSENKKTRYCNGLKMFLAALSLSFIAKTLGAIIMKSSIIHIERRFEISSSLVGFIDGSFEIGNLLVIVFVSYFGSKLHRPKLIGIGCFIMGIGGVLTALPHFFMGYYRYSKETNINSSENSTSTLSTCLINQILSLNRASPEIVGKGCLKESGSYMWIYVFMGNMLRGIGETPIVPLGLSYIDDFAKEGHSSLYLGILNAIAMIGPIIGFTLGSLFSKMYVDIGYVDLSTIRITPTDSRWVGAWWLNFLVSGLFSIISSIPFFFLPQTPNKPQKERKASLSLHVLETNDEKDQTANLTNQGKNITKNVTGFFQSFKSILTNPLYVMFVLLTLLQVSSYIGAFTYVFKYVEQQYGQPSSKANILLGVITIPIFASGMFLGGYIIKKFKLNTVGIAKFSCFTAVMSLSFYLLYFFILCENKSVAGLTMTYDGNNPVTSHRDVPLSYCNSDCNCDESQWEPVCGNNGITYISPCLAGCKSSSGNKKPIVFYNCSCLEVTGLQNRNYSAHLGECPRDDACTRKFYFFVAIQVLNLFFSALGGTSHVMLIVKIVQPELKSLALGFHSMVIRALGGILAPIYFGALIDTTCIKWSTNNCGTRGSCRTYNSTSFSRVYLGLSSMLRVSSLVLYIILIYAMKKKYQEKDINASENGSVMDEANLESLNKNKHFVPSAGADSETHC

[2] = target: T1, OATP1B1; assay: in vitro; conditions: hek293 cells
[3] = target: T2, OAT1 (Homo sapiens, UniProt Q4U2R8); assay: 3H-HDA uptake in OAT1-expressing HEK293 cells, blocked by probenecid; assay type: cell-based; conditions: HEK293, read-out: % inhibition at 30 μM
T2 sequence (Q4U2R8 1-563): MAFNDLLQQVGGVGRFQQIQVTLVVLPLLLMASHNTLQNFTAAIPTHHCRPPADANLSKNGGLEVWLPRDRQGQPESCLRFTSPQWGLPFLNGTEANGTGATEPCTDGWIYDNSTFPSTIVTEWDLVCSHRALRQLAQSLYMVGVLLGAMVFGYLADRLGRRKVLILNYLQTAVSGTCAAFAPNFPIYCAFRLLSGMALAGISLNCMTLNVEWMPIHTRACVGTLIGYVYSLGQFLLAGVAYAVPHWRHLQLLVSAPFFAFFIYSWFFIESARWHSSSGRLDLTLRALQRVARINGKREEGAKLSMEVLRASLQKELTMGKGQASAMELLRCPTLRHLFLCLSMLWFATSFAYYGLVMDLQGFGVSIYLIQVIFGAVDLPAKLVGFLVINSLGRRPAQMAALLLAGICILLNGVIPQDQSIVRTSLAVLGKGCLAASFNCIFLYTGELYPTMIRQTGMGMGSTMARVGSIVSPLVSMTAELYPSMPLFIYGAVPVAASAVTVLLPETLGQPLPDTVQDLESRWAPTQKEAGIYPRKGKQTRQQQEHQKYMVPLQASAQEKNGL

[4] = target: T3, OAT3 (Homo sapiens, UniProt Q8TCC7); assay: 3H-HDA uptake in OAT3-expressing HEK293 cells, blocked by probenecid; assay type: cell-based; conditions: HEK293, read-out: % inhibition at 30 μM
T3 sequence (Q8TCC7 1-542): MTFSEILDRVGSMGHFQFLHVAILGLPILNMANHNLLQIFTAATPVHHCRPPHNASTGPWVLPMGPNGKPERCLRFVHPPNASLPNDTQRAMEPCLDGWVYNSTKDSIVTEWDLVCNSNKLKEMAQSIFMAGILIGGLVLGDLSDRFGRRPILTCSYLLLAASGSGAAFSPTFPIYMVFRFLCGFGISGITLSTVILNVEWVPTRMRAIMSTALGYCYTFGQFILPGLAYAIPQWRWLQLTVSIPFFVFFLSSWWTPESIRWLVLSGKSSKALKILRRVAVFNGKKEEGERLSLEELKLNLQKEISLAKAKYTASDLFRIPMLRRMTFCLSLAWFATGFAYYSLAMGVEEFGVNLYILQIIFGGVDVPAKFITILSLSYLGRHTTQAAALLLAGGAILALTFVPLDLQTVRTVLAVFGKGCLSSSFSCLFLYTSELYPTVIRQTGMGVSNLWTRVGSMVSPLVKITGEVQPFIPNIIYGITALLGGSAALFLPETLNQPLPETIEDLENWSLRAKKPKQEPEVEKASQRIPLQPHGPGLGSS

[5] = target: T2, OAT1; assay: 3H-TDA uptake in OAT1-expressing HEK293 cells, blocked by probenecid; assay type: cell-based; conditions: HEK293, read-out: % inhibition at 30 μM
[6] = target: T3, OAT3; assay: 3H-TDA uptake in OAT3-expressing HEK293 cells, blocked by probenecid; assay type: cell-based; conditions: HEK293, read-out: % inhibition at 30 μM
[7] = target: T1, OATP1B1; assay: in vitro; conditions: hek293 cells; remark: listed apart in the source

SMILES: C[C@H](CCC(=O)NCC(=O)O)[C@H]1CC[C@H]2[C@@H]3CC[C@@H]4C[C@H](O)CC[C@]4(C)[C@H]3C[C@H](O)[C@]12C [Glycodeoxycholate]
- inhibition at 30 µM [1]: > 70%

SMILES: O=C(O)CCCCCCCCCCCCCCC(=O)O [HDA, hexadecanedioic acid]
- IC50 [2]: 1600 to 4000 nM
- inhibition at 30 µM [3]: > 30%
- inhibition at 30 µM [4]: > 70%

SMILES: O=C(O)CCCCCCCCCCCCC(=O)O [TDA, tetradecanedioic acid]
- inhibition at 30 µM [5]: > 30%
- inhibition at 30 µM [6]: > 70%
- IC50 [7]: 1600 to 4000 nM

SMILES: C[C@H](CCC(=O)NCCS(=O)(=O)O)[C@H]1CC[C@H]2[C@@H]3CC[C@@H]4C[C@H](OS(=O)(=O)O)CC[C@]4(C)[C@H]3CC[C@]12C [TLS, Taurolithocholate 3-sulfate]
- inhibition at 30 µM [1]: > 70%
